Patent US4551464A, “Antithrombotic sulfoximino carbostyrils” (Dr. Karl Thomae Gesellschaft mit beschrankter Haftung, priority 1981, dated 1985)

Columns and labels:
[1] = system: phosphodiesterase (PDE) from human blood platelets; experiment: PDE Inhibition (human blood platelet phosphodiesterase, 3H-cAMP hydrolysis); assay type: biochemical; settings: 1 μmol/liter 3H-cAMP, 15 minutes at 37° C., pH 7.4
Protocol: cAMP is hydrolyzed to AMP by phosphodiesterase (PDE) from various sources, including blood platelets.
The phosphodiesterase used was prepared by centrifugal extraction at 10,000 G from human blood platelets which were frozen in water and then thawed.
0.3 ml of a mixture containing 0.1 mol/liter of trihydroxy-aminomethane (pH 7.4), 3 mmols/liter of magnesium chloride, 1 mmol/liter of AMP, 1 μmol/liter of ^3 H-cAMP (specific activity about 10 MBq/μmol), PDE and the inhibitor under investigation (water in the case of the control) was incubated for 15 minutes at 37° C. The incubation was stopped by the addition of 0.5 ml zinc sulfate (0.266 mol/liter) and 0.5 ml barium hydroxide (0.226 mol/liter), the precipitate was centrifuged, and the activity remaining in the unreacted ^3 H-cAMP in the supernatant was determined. From a comparison of the results for inhibitor and control cases, the concentration of the respective inhibitor necessary for a 50% inhibiting effect (IC50) was calculated: […]

conscious mice = experiment: Determination of the prolongation of bleeding time (tail tip, oral, conscious mice); assay type: in vivo; settings: Mus musculus, 2.5 mg/kg oral, after 1 hour, compared to control group, 5 animals per experiment
Protocol: To measure the bleeding time, 2.5 mg/kg of the test compound were administered orally to conscious mice. After one hour, 0.5 mm of the tip of the tail of each mouse was cut off and the droplets of blood were gently removed with filter paper every 30 seconds. The number of drops of blood thus obtained give a bleeding time (5 animals per experiment).
The results of the following table represent the prolongation of the bleeding time in percent as compared to a control group: […]

[2] = Acute toxicity, single oral dose; assay type: in vivo, mice; settings: mouse, in vivo; single oral dose of 250 mg (E: 1000 mg), 14 days observation, mice; read-out: animals that died out of 10
Protocol: (§1) The acute toxicity of the compounds was determined in groups of 10 mice after oral administration of a single dose (observation period: 14 days): […]

mice = experiment: Acute toxicity, single oral dose; assay type: in vivo; settings: groups of 10 mice, single oral dose, observation period 14 days; dose at which 0 out of 10 animals died
Protocol: as §1

CC(C)(C)c1ccc(S(=N)(=O)CCCCOc2ccc3[nH]c(=O)ccc3c2)cc1 (stereo not shown) [M, 6-[4-(4-tert.butylphenyl-sulfoximino)-butoxy]-carbostyril]
IC50 [1]: 210 nM
change in vivo at 2.5 mg/kg (conscious mice): > 191%

CCCC(=O)N=S(=O)(CCCCOc1ccc2c(c1)CCC(=O)N2)c1ccc(Cl)c(Cl)c1 (stereo not shown) [O, 6-[4-(N-butyryl-3,4-dichlorophenyl-sulfoximino)-butoxy]-3,4-dihydrocarbostyril]
IC50 [1]: 530 nM
change in vivo at 2.5 mg/kg (conscious mice): > 233%

N=S(=O)(CCCCOc1ccc2[nH]c(=O)ccc2c1)c1ccc(F)cc1 (stereo not shown) [G, 6-[4-(4-fluorophenyl-sulfoximino)-butoxy]-carbostyril]
IC50 [1]: 400 nM
change in vivo at 2.5 mg/kg (conscious mice): 85%
mortality at 336 h [2]: 0%
Approximate acute toxicity (dose) (mice): 250 mg

N=S(=O)(CCCCOc1ccc2[nH]c(=O)ccc2c1)C1CCCCC1 (stereo not shown) [N, 6-(4-cyclohexylsulfoximino-butoxy)-carbostyril]
IC50 [1]: 680 nM
change in vivo at 2.5 mg/kg (conscious mice): > 184%

Cc1ccc(S(=O)(=O)N=S(=O)(CCCCOc2ccc3c(c2)CCC(=O)N3)c2ccc(Cl)c(Cl)c2)cc1 (stereo not shown) [F, 6-[4-(N-p-toluenesulfonyl-3,4-dichlorophenyl-sulfoximino)-butoxy]-3,4-dihydrocarbostyril]
IC50 [1]: 900 nM
change in vivo at 2.5 mg/kg (conscious mice): > 212%
mortality at 336 h [2]: 0%
Approximate acute toxicity (dose) (mice): 250 mg

CC(=O)N=S(=O)(CCCCOc1ccc2c(c1)CCC(=O)N2)c1ccc(Cl)c(Cl)c1 (stereo not shown) [E, 6-[4-(N-acetyl-3,4-dichlorophenyl-sulfoximino)-butoxy]-3,4-dihydrocarbostyril]
IC50 [1]: 840 nM
change in vivo at 2.5 mg/kg (conscious mice): > 194%
mortality at 336 h [2]: 0%
Approximate acute toxicity (dose) (mice): 1000 mg

N=S(=O)(CCCCOc1ccc2[nH]c(=O)ccc2c1)c1ccc(Cl)cc1 (stereo not shown) [H, 6-[4-(4-chlorophenyl-sulfoximino)-butoxy]-carbostyril]
IC50 [1]: 170 nM
change in vivo at 2.5 mg/kg (conscious mice): 78%
mortality at 336 h [2]: 0%
Approximate acute toxicity (dose) (mice): 250 mg

N=S(=O)(CCCCOc1ccc2c(c1)CCC(=O)N2)c1ccc(Cl)cc1 (stereo not shown) [D, 6-[4-(4-chlorophenyl-sulfoximino)-butoxy]-3,4-dihydrocarbostyril]
IC50 [1]: 840 nM
change in vivo at 2.5 mg/kg (conscious mice): 53%
mortality at 336 h [2]: 0%
Approximate acute toxicity (dose) (mice): 250 mg

N=S(=O)(CCCCOc1ccc2c(c1)CCC(=O)N2)c1ccc(F)cc1 (stereo not shown) [C, 6-[4-(4-fluorophenyl-sulfoximino)-butoxy]-3,4-dihydrocarbostyril]
IC50 [1]: 1200 nM
change in vivo at 2.5 mg/kg (conscious mice): 125%
mortality at 336 h [2]: 0%
Approximate acute toxicity (dose) (mice): 250 mg

COc1ccc(S(=O)(CCCCOc2ccc3c(c2)CCC(=O)N3)=NC(=O)c2ccc(C(C)(C)C)cc2)cc1OC (stereo not shown) [Q, 6-[4-(N-tert.benzoyl-3,4-dimethoxyphenyl-sulfoximino)-butoxy]-3,4-dihydrocarbostyril]
IC50 [1]: 3100 nM
change in vivo at 2.5 mg/kg (conscious mice): > 158%

N=S(=O)(CCCCOc1ccc2c(c1)CCC(=O)N2)c1ccccc1 (stereo not shown) [B, 6-(4-phenylsulfoximino-butoxy)-3,4-dihydrocarbostyril]
IC50 [1]: 2000 nM
change in vivo at 2.5 mg/kg (conscious mice): > 161%
mortality at 336 h [2]: 0%
Approximate acute toxicity (dose) (mice): 250 mg

Cc1cc(S(=N)(=O)CCCCOc2ccc3[nH]c(=O)ccc3c2)ccc1Br (stereo not shown) [Compound I, 6-[4-(3-methyl-4-bromophenyl-sulfoximino)-butoxy]-carbostyril]
IC50 [1]: 39 nM
change in vivo at 2.5 mg/kg (conscious mice): > 275%
mortality at 336 h [2]: 0%
Approximate acute toxicity (dose) (mice): 250 mg

CC(=O)N=S(=O)(CCCCOc1ccc2c(c1)C(C)(C)C(=O)N2)c1ccc(Cl)cc1 (stereo not shown) [P, 5-[4-(N-Acetyl-4-chlorophenyl-sulfoximino)-butoxy]-3,3-dimethyl-indolin-2-one]
IC50 [1]: 1800 nM
change in vivo at 2.5 mg/kg (conscious mice): > 169%

COc1ccc(S(=N)(=O)CCCCOc2ccc3c(c2)CCC(=O)N3)cc1OC (stereo not shown) [R, 6-[4-(3,4-dimethoxyphenyl-sulfoximino)-butoxy]-3,4-dihydrocarbostyril]
IC50 [1]: 1600 nM
change in vivo at 2.5 mg/kg (conscious mice): > 218%

CC(C)(C)c1ccc(S(=N)(=O)CCCCOc2ccc3c(c2)CCC(=O)N3)cc1 (stereo not shown) [K, 6-[4-(4-tert.butylphenyl-sulfoximino)-butoxy]-3,4-dihydrocarbostyril]
IC50 [1]: 240 nM
change in vivo at 2.5 mg/kg (conscious mice): > 180%

CS(=N)(=O)CCCCOc1ccc2c(c1)CCC(=O)N2 (stereo not shown) [Compound A, 6-(4-methylsulfoximino-butoxy)-3,4-dihydrocarbostyril mesitylenesulfonate]
IC50 [1]: 45000 nM
change in vivo at 2.5 mg/kg (conscious mice): 73%
mortality at 336 h [2]: 0%
Approximate acute toxicity (dose) (mice): 250 mg

N=S(=O)(CCCCOc1ccc2c(c1)CCC(=O)N2)c1ccc(C2CCCCC2)cc1 (stereo not shown) [L, 6-[4-(4-cyclohexylphenyl-sulfoximino)-butoxy]-3,4-dihydrocarbostyril]
IC50 [1]: 52 nM
change in vivo at 2.5 mg/kg (conscious mice): > 191%
